How the values were obtained:
Nociceptin receptor = Nociceptin receptor (Homo sapiens, UniProt P41146); assay: GPCRScan assay: inhibition of NOP; design: radioligand conc. used [nm] 0.5 – 2.0, parental cells HEKT
Cannabinoid receptor 2 = Cannabinoid receptor 2 (Homo sapiens, UniProt P34972); assay: Radioligand Binding Assay (CNR2)
[1] = test system: Tyrosine-protein kinase ABL1 (Homo sapiens), P00519 [Q252H]; settings: Compound concentration 1000.0 nM
[2] = target: Tyrosine-protein kinase ABL2 (Homo sapiens) (UniProt P42684); settings: Compound concentration 1000.0 nM
[3] = target: Aurora kinase B (Homo sapiens) (UniProt Q96GD4); settings: Compound concentration 1000.0 nM
[4] = test system: Serine/threonine-protein kinase B-raf (Homo sapiens), P15056 [V600E]; settings: Compound concentration 1000.0 nM
[5] = target: Serine/threonine-protein kinase BRSK1 (Homo sapiens) (UniProt Q8TDC3); settings: Compound concentration 1000.0 nM
[6] = target: Cyclin-dependent kinase 11A (Homo sapiens) (UniProt Q9UQ88); settings: Compound concentration 1000.0 nM
[7] = target: Cyclin-dependent kinase 5 (Homo sapiens) (UniProt Q00535); settings: Compound concentration 1000.0 nM
[8] = target: Dual specificity protein kinase CLK3 (Homo sapiens) (UniProt P49761); settings: Compound concentration 1000.0 nM
[9] = target: Casein kinase I isoform epsilon (Homo sapiens) (UniProt P49674); settings: Compound concentration 1000.0 nM
[10] = target: Death-associated protein kinase 2 (Homo sapiens) (UniProt Q9UIK4); settings: Compound concentration 1000.0 nM
[11] = target: Epithelial discoidin domain-containing receptor 1 (Homo sapiens) (UniProt Q08345); settings: Compound concentration 1000.0 nM
[12] = test system: Epidermal growth factor receptor (Homo sapiens), P00533 [UNDEFINED MUTATION]; settings: Compound concentration 1000.0 nM
[13] = test system: Epidermal growth factor receptor (Homo sapiens), P00533 [L858R,T790M]; settings: Compound concentration 1000.0 nM
[14] = target: Rhodopsin kinase GRK7 (Homo sapiens) (UniProt Q8WTQ7); settings: Compound concentration 1000.0 nM
[15] = target: Homeodomain-interacting protein kinase 4 (Homo sapiens) (UniProt Q8NE63); settings: Compound concentration 1000.0 nM
[16] = target: Tyrosine-protein kinase Lck (Homo sapiens) (UniProt P06239); settings: Compound concentration 1000.0 nM
[17] = target: Dual specificity mitogen-activated protein kinase kinase 3 (Homo sapiens) (UniProt P46734); settings: Compound concentration 1000.0 nM
[18] = target: Dual specificity mitogen-activated protein kinase kinase 5 (Homo sapiens) (UniProt Q13163); settings: Compound concentration 1000.0 nM
[19] = target: MAP kinase-interacting serine/threonine-protein kinase 1 (Homo sapiens) (UniProt Q9BUB5); settings: Compound concentration 1000.0 nM
[20] = target: Myosin light chain kinase (Homo sapiens) (UniProt Q32MK0); settings: Compound concentration 1000.0 nM
[21] = target: Serine/threonine-protein kinase 4 (Homo sapiens) (UniProt Q13043); settings: Compound concentration 1000.0 nM
[22] = target: Serine/threonine-protein kinase 24 (Homo sapiens) (UniProt Q9Y6E0); settings: Compound concentration 1000.0 nM
[23] = target: Serine/threonine-protein kinase 38 (Homo sapiens) (UniProt Q15208); settings: Compound concentration 1000.0 nM
[24] = target: Mitogen-activated protein kinase kinase kinase 14 (Homo sapiens) (UniProt Q99558); settings: Compound concentration 1000.0 nM
[25] = target: Serine/threonine-protein kinase NIM1 (Homo sapiens) (UniProt Q8IY84); settings: Compound concentration 1000.0 nM
[26] = target: Cyclin-dependent kinase 15 (Homo sapiens) (UniProt Q96Q40); settings: Compound concentration 1000.0 nM
[27] = test system: Phosphatidylinositol 4,5-bisphosphate 3-kinase catalytic subunit alpha isoform (Homo sapiens), P42336 [C420R]; settings: Compound concentration 1000.0 nM
[28] = test system: Phosphatidylinositol 4,5-bisphosphate 3-kinase catalytic subunit alpha isoform (Homo sapiens), P42336 [H1047Y]; settings: Compound concentration 1000.0 nM
[29] = target: Serine/threonine-protein kinase N1 (Homo sapiens) (UniProt Q16512); settings: Compound concentration 1000.0 nM
[30] = target: Protein kinase C epsilon type (Homo sapiens) (UniProt Q02156); settings: Compound concentration 1000.0 nM
[31] = target: Serine/threonine-protein kinase PRP4 homolog (Homo sapiens) (UniProt Q13523); settings: Compound concentration 1000.0 nM
[32] = test system: Proto-oncogene tyrosine-protein kinase receptor Ret (Homo sapiens), P07949 [V804L]; settings: Compound concentration 1000.0 nM
[33] = target: Rho-associated protein kinase 2 (Homo sapiens) (UniProt O75116); settings: Compound concentration 1000.0 nM
[34] = target: Ribosomal protein S6 kinase alpha-3 (Homo sapiens) (UniProt P51812); settings: Compound concentration 1000.0 nM
[35] = target: Mitogen-activated protein kinase kinase kinase 7 (Homo sapiens) (UniProt O43318); settings: Compound concentration 1000.0 nM
[36] = target: TGF-beta receptor type-2 (Homo sapiens) (UniProt P37173); settings: Compound concentration 1000.0 nM
[37] = target: Transient receptor potential cation channel subfamily M member 6 (Homo sapiens) (UniProt Q9BX84); settings: Compound concentration 1000.0 nM
[38] = target: Dual specificity protein kinase TTK (Homo sapiens) (UniProt P33981); settings: Compound concentration 1000.0 nM
[39] = target: Non-receptor tyrosine-protein kinase TYK2 (Homo sapiens) (UniProt P29597); settings: Compound concentration 1000.0 nM
[40] = target: Serine/threonine-protein kinase 25 (Homo sapiens) (UniProt O00506); settings: Compound concentration 1000.0 nM
[41] = target: D(3) dopamine receptor (Homo sapiens) (UniProt P35462); settings: Compound concentration 10.0 uM
[42] = target: Delta-type opioid receptor (Homo sapiens, UniProt P41143); settings: Compound concentration 10.0 uM
[43] = target: Histamine H3 receptor (Homo sapiens) (UniProt Q9Y5N1); settings: Compound concentration 10.0 uM
[44] = target: Sigma intracellular receptor 2 (Homo sapiens, UniProt Q5BJF2); settings: Compound concentration 10.0 uM
Sequence of Sigma intracellular receptor 2 (Q5BJF2 whole entry): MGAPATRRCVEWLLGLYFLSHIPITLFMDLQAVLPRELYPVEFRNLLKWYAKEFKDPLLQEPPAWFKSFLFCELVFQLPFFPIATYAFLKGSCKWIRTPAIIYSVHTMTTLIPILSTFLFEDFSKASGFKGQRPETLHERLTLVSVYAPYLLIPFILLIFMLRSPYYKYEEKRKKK

Sequence of Nociceptin receptor (P41146 whole entry): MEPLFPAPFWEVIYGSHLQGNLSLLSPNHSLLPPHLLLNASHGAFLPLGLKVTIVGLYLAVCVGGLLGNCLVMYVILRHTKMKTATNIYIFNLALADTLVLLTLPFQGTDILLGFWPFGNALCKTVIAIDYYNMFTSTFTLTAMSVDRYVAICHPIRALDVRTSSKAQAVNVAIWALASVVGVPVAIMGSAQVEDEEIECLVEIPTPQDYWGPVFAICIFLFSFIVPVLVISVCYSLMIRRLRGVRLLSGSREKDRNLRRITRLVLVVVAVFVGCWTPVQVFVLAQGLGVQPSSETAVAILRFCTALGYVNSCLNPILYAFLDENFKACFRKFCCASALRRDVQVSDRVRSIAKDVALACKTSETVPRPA
Sequence of Serine/threonine-protein kinase PRP4 homolog (Homo sapiens) (Q13523 whole entry): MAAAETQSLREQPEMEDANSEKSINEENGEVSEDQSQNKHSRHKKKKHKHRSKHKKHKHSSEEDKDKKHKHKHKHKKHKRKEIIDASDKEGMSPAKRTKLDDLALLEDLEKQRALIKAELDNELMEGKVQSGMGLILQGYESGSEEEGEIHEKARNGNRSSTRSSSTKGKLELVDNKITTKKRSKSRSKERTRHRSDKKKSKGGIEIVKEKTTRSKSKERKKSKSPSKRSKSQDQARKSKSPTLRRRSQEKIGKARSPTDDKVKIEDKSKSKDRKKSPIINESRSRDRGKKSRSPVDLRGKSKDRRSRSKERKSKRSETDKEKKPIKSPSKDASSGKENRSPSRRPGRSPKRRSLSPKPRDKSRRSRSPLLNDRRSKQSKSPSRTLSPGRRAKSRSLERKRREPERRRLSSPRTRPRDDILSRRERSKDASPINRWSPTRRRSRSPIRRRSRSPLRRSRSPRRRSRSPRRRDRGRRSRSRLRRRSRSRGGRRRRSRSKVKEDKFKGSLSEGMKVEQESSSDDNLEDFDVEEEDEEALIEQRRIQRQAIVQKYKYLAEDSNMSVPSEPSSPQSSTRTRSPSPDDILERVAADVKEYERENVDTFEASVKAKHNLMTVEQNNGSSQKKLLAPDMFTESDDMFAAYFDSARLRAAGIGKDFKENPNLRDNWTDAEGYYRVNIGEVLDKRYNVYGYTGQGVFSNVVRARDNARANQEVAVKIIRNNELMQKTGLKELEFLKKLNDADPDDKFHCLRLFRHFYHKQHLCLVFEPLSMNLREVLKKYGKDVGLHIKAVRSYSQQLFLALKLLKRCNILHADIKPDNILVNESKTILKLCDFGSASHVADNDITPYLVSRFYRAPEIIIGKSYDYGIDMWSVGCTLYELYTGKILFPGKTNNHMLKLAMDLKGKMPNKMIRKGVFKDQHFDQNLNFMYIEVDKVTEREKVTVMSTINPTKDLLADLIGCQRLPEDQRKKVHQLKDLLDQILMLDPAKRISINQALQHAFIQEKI
Sequence of D(3) dopamine receptor (Homo sapiens) (P35462 whole entry): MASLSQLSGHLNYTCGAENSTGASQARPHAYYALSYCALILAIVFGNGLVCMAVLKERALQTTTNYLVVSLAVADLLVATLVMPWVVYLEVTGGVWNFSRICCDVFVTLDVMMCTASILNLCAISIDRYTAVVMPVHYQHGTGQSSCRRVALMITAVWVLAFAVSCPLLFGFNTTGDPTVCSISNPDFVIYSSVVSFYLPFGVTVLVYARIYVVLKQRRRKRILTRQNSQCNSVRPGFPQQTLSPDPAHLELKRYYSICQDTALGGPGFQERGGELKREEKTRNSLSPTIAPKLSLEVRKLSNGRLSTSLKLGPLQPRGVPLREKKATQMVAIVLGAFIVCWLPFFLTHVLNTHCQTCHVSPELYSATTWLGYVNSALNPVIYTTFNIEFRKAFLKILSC
Sequence of Dual specificity mitogen-activated protein kinase kinase 3 (Homo sapiens) (P46734 whole entry): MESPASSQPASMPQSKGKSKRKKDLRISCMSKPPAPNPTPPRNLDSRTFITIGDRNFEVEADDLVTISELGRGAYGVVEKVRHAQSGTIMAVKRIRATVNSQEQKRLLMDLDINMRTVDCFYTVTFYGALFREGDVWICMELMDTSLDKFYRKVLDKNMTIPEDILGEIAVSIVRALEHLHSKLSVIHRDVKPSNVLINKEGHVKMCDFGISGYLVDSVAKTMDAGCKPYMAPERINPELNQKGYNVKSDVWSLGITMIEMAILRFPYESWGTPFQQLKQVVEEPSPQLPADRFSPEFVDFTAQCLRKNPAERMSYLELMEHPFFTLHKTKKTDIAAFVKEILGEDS
Sequence of Cyclin-dependent kinase 5 (Homo sapiens) (Q00535 whole entry, looked up): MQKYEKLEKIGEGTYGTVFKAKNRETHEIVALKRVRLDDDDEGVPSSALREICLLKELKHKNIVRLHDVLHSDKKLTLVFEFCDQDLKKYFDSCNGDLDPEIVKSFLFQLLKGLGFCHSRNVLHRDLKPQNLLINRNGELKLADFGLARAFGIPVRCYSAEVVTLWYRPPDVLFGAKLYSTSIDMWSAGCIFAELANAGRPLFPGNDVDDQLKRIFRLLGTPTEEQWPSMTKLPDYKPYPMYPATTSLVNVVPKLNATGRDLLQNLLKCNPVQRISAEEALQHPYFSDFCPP
Sequence of Mitogen-activated protein kinase kinase kinase 14 (Homo sapiens) (Q99558 whole entry, looked up): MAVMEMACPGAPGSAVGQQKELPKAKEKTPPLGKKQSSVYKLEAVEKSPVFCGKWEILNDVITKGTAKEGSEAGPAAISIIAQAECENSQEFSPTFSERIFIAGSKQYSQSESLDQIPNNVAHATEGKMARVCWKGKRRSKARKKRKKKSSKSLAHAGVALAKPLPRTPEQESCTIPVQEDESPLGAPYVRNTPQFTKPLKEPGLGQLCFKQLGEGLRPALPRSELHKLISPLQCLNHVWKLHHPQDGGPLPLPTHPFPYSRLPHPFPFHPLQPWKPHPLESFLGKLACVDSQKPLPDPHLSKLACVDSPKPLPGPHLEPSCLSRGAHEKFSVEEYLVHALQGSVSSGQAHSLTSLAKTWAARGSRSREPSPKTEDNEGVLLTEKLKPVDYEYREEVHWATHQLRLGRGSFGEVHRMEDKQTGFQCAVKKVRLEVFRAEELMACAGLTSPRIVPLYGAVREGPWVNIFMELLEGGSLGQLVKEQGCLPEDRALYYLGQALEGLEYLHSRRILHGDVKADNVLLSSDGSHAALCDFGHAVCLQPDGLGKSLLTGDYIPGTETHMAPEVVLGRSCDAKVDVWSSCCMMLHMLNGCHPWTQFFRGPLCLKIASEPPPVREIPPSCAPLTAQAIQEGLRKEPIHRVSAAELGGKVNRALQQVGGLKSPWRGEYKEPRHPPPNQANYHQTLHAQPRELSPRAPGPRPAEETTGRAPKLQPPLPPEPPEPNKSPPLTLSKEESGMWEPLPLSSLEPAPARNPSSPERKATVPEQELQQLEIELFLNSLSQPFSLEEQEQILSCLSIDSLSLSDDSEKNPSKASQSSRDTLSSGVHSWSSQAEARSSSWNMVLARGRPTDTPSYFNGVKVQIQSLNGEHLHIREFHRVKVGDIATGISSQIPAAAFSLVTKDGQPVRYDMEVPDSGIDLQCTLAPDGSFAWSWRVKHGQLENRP
Sequence of TGF-beta receptor type-2 (Homo sapiens) (P37173 whole entry): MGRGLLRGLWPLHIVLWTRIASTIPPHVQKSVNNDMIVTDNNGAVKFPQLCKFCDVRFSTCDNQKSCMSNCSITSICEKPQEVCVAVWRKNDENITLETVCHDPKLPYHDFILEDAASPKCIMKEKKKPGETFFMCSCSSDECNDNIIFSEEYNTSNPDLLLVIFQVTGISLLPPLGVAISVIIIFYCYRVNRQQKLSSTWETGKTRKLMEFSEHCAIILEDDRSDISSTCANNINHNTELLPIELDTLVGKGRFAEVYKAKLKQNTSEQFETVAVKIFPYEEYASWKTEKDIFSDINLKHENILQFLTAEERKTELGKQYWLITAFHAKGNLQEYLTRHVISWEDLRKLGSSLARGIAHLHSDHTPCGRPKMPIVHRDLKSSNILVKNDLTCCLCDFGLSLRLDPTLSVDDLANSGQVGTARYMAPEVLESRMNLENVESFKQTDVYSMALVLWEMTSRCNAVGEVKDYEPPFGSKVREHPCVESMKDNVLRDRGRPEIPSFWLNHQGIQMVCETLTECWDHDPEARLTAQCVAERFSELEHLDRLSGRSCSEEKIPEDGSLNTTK
Sequence of Cyclin-dependent kinase 11A (Homo sapiens) (Q9UQ88 whole entry): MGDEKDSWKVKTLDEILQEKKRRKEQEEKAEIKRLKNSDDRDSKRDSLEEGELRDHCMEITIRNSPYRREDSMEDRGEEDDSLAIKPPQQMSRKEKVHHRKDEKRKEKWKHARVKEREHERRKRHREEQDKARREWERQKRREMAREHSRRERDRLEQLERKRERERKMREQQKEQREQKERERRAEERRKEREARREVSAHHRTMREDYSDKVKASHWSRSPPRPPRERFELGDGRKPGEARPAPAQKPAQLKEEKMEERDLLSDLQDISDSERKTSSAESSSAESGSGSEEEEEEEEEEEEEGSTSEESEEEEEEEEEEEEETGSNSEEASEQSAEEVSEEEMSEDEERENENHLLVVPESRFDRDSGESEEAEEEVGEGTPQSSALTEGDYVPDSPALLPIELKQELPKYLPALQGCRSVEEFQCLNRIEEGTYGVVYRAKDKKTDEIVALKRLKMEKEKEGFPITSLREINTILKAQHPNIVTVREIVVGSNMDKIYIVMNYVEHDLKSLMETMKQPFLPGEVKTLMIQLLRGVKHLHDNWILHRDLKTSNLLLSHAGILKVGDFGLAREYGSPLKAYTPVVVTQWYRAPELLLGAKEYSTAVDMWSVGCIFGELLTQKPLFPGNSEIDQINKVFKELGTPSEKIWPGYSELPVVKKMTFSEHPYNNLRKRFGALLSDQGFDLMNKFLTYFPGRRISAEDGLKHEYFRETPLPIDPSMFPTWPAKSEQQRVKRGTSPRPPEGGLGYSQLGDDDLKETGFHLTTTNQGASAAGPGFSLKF

## CC(=O)Nc1c(C(C)=O)c(=O)n(C)c2nc(-c3ccc(Cl)cc3Cl)c(-c3ccc(Cl)cc3)cc12 [NAPHTHYRIDINONE]
Nociceptin receptor
  Ki: 10 µM
  pKi: 5
Cannabinoid receptor 2
  IC50: 4.63 µM (not active)
[1]
  residual activity: 72%
[2]
  residual activity: 100%
[3]
  residual activity: 92%
[4]
  residual activity: 100%
[5]
  residual activity: 85%
[6]
  residual activity: 100%
[7]
  residual activity: 100%
[8]
  residual activity: 100%
[9]
  residual activity: 100%
[10]
  residual activity: 100%
[11]
  residual activity: 100%
[12]
  residual activity: 92%
[13]
  residual activity: 100%
[14]
  residual activity: 100%
[15]
  residual activity: 89%
[16]
  residual activity: 100%
[17]
  residual activity: 86%
[18]
  residual activity: 94%
[19]
  residual activity: 100%
[20]
  residual activity: 100%
[21]
  residual activity: 100%
[22]
  residual activity: 100%
[23]
  residual activity: 93%
[24]
  residual activity: 92%
[25]
  residual activity: 100%
[26]
  residual activity: 100%
[27]
  residual activity: 88%
[28]
  residual activity: 100%
[29]
  residual activity: 92%
[30]
  residual activity: 48%
[31]
  residual activity: 100%
[32]
  residual activity: 100%
[33]
  residual activity: 100%
[34]
  residual activity: 99%
[35]
  residual activity: 100%
[36]
  residual activity: 100%
[37]
  residual activity: 100%
[38]
  residual activity: 100%
[39]
  residual activity: 100%
[40]
  residual activity: 100%
[41]
  inhibition: 14.3%
[42]
  inhibition: -2.35%
[43]
  inhibition: -2.68%
[44]
  inhibition: 54.6%

## CC(=O)c1c(NS(C)(=O)=O)c2cc(-c3ccc(Cl)cc3)c(-c3ccc(Cl)cc3Cl)nc2n(C)c1=O [MRL-CB1-NC]
Nociceptin receptor; Compound concentration 10.0 uM
  inhibition: -2.4%
Cannabinoid receptor 2
  Inverse agonism: 38.3%
[1]
  residual activity: 76%
[2]
  residual activity: 100%
[3]
  residual activity: 100%
[4]
  residual activity: 88%
[5]
  residual activity: 99%
[6]
  residual activity: 98%
[7]
  residual activity: 100%
[8]
  residual activity: 92%
[9]
  residual activity: 100%
[10]
  residual activity: 100%
[11]
  residual activity: 100%
[12]
  residual activity: 100%
[13]
  residual activity: 89%
[14]
  residual activity: 83%
[15]
  residual activity: 93%
[16]
  residual activity: 100%
[17]
  residual activity: 96%
[18]
  residual activity: 80%
[19]
  residual activity: 100%
[20]
  residual activity: 91%
[21]
  residual activity: 100%
[22]
  residual activity: 97%
[23]
  residual activity: 77%
[24]
  residual activity: 63%
[25]
  residual activity: 81%
[26]
  residual activity: 100%
[27]
  residual activity: 93%
[28]
  residual activity: 96%
[29]
  residual activity: 100%
[30]
  residual activity: 96%
[31]
  residual activity: 83%
[32]
  residual activity: 100%
[33]
  residual activity: 100%
[34]
  residual activity: 100%
[35]
  residual activity: 83%
[36]
  residual activity: 100%
[37]
  residual activity: 100%
[38]
  residual activity: 100%
[39]
  residual activity: 89%
[40]
  residual activity: 100%
[41]
  inhibition: 5.91%
[42]
  inhibition: 73.6%
[43]
  inhibition: 0.553%
[44]
  inhibition: 17.6%

— ChEMBL document CHEMBL4507287, “Data for DCP probe MRL-650” (2021)
